Literature values as cited in patent US6355677B1, “Adrenoleukodystrophy treatments and drug screening” (The Johns Hopkins University, priority 1998, dated 2002).

How the values were obtained:
[1] = active ingredient of Lorenzo oil; cited from earlier work
[2] = in rats; cited from earlier work

For `CCCCCCCC/C=C\CCCCCCCCCCCC(=O)O` [erucic acid], the Brain entry [1] is listed as “does not get into the brain”.

For `O=C(O)Cc1ccccc1` [phenylacetate], the Blood-brain barrier passage [2] is given as “can cross the blood-brain barrier”.
